For assay [1], the target named is DGKζ (Homo sapiens (Human), UniProt Q13574). Briefly: Biochemical DGK IC50 assay, DGKζ ADP-Glo assay. The following applies: 0.5 nM enzyme, 140 μM ATP, 80 μM DAG; read-out: DGKζ ADP-Glo assay IC50. The method, boiled down:
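ADP formation measured by ADP-Glo luminescence, with test compounds at final 1.55–10000 nM or 23.3–150000 nM. Enzyme: purified full-length human DGKζ from Sf9 insect cells; substrate: DAG/PS micelles in 25 mM HEPES pH 7.0, 0.5 mM EDTA, octyl glucoside.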
(ADP-Glo first removes unused ATP, then detects ADP through luciferase.)

Assay [2] concerns the target DGKα (Homo sapiens (Human), UniProt P23743). The assay is described as follows: Biochemical DGK IC50 assay, DGKα ADP-Glo assay. The following applies: 7.5 nM enzyme, 140 μM ATP, 80 μM DAG. The method, boiled down:
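Compounds at final 1.55˜10000 nM or 23.3˜150000 nM were tested against full-length DGKα. Substrate was lipid micelles of DAG and PS resuspended in 25 mM HEPES pH 7.0 with 0.5 mM EDTA and 160 mM octyl β-D-glucopyranoside. ADP formed was detected by ADP-Glo.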

As a reminder, the IC50 is the point on the concentration scale where inhibition reaches its midpoint.

Chain of DGKζ (Q13574 other isoform, or with tags, fused parts or gaps): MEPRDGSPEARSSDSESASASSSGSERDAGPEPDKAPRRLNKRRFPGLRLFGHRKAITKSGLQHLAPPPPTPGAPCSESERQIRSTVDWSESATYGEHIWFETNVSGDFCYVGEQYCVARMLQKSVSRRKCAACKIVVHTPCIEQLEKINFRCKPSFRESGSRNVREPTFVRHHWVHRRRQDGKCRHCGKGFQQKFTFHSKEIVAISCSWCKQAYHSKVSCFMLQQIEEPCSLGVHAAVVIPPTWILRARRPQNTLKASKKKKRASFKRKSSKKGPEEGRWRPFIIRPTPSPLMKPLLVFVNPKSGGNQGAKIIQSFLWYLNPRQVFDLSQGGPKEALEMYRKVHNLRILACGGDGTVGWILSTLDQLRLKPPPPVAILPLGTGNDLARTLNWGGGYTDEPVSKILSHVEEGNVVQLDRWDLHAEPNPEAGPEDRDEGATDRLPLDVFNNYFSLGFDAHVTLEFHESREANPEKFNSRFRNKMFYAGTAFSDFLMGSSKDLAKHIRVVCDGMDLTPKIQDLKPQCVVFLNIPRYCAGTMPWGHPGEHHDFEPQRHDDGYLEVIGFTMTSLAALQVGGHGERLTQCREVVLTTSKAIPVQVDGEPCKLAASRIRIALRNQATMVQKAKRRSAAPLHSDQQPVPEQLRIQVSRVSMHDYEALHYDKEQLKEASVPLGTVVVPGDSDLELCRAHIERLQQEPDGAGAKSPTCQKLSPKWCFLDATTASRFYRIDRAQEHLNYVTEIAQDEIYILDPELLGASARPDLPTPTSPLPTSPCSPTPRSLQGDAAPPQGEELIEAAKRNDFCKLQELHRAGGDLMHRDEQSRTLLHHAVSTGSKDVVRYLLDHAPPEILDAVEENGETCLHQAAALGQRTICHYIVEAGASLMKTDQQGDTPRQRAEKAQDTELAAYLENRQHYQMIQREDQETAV
Chain of DGKα (P23743 whole entry): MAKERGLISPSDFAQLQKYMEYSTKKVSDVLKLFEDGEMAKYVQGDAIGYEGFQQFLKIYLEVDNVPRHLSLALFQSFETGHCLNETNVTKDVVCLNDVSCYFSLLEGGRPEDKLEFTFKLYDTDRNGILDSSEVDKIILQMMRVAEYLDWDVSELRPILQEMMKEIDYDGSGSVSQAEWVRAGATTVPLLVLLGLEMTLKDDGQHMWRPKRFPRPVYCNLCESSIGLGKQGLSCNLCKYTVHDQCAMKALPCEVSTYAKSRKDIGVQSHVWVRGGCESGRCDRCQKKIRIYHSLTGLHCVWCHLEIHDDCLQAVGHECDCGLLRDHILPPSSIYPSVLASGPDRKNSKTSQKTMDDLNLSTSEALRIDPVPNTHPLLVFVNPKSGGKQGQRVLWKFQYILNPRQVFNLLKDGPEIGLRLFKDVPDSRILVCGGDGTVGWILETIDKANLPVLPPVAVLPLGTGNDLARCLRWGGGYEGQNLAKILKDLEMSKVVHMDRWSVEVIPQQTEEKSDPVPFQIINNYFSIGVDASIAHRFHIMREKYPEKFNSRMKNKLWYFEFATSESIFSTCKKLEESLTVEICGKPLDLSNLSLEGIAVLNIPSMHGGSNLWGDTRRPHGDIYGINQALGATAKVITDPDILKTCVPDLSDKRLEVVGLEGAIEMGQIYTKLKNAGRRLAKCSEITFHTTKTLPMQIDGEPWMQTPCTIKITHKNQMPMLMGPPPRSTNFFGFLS

As for `CC[C@@H]1CN(c2cc(=O)n(C)c3cn(CC#N)nc23)[C@@H](CC)CN1C(=O)c1cc2ccccc2cn1` [Compound A372], the 50% inhibitory concentration (IC50) in assay [1] stood at 3450 nM; in assay [2], 127 nM.
For `CC[C@@H]1CN(c2cc(=O)n(C)c3cn(CC#N)nc23)[C@@H](CC)CN1C(=O)c1ccc2cccnc2c1` [Compound A373], the half-inhibitory concentration (IC50) amounted to 3220 nM in assay [1] and 21800 nM in assay [2].
`CC[C@@H]1CN(c2cc(=O)n(C)c3cn(CC#N)nc23)[C@@H](CC)CN1C(=O)c1cnc2ccccc2n1` [Compound A374]: the results for the IC50 in assay [1] and in assay [2] were 51 nM and 618 nM, respectively.
For `CC[C@H]1CN(C(C)c2ccc(OC3CCOC3)cc2)[C@H](CC)CN1c1cc(=O)n(C)c2cn(CC#N)nc12` (stereo partly drawn) [Compound A375, 2-(7-((2S,5R)-2,5-diethyl-4-(1-(4-((tetrahydrofuran-3-yl)oxy)phenyl)ethyl)piperazin-1-yl)-4-methyl-5-oxo-4,5-dihydro-2H-pyrazolo[4,3-b]pyridin-2-yl)acetonitrile] the same measures were 944 nM and 200 nM.
With `CC[C@H]1CN(C(C)c2ccc(OCC3CCOC3)cc2)[C@H](CC)CN1c1cc(=O)n(C)c2cn(CC#N)nc12` (some centres unmarked) [Compound A376], the IC50 in assay [1] was found to be 602 nM; in assay [2] it was 206 nM.
`CC[C@H]1CN(C(C)c2ccc(OC)cc2)[C@H](CC)CN1c1cc(=O)n(C)c2cn(CC#N)nc12` (some centres unmarked) [Compound A377]: the IC50 in assay [1] is 173 nM; in assay [2], 94 nM.
As for `CC[C@H]1CN(C(C)c2ccc(OCC3COC3)cc2)[C@H](CC)CN1c1cc(=O)n(C)c2cn(CC#N)nc12` (some centres unmarked) [Compound A379], the IC50 is 571 nM in assay [1] and 294 nM in assay [2].
For the compound `CC[C@H]1CN(C(C)c2ccc(OC3CCOCC3)cc2)[C@H](CC)CN1c1cc(=O)n(C)c2cn(CC#N)nc12` (some centres unmarked) [Compound A380], the figures for the IC50 in assay [1] and in assay [2] were 667 nM and 161 nM, respectively.
On the same counts, the results for `CC[C@H]1CN(C(C)c2ccc(C(=O)N3CCC(F)(F)CC3)cc2)[C@H](CC)CN1c1cc(=O)n(C)c2cn(CC#N)nc12` (some centres unmarked) [Compound A382] are 499 nM and 79 nM.
Take `CC[C@H]1CN(C(C)c2ccc(C)c(C)c2)[C@H](CC)CN1c1cc(=O)n(C)c2cn(CC#N)nc12` (some centres unmarked) [Compound A384]: the half-maximal inhibitory concentration (IC50) came to 99 nM in assay [1] and 1750 nM in assay [2].
As to `CC[C@H]1CN(C(C)c2cc(C)c(C)cn2)[C@H](CC)CN1c1cc(=O)n(C)c2cn(CC#N)nc12` (some centres unmarked) [Compound A385], the 50% inhibitory concentration (IC50) in assay [1] was found to be 498 nM; in assay [2], 481 nM.
As for `CC[C@H]1CN(C(C)c2ccc(C(C)(C)C#N)cn2)[C@H](CC)CN1c1cc(=O)n(C)c2cn(CC#N)nc12` (some centres unmarked) [Compound A386], the IC50 in assay [1] worked out at 418 nM; in assay [2], 689 nM.
`CC[C@H]1CN(C(C)c2ncc(OC(C)C)cc2F)[C@H](CC)CN1c1cc(=O)n(C)c2cn(CC#N)nc12` (some centres unmarked) [Compound A387]: the half-inhibitory concentration (IC50) in assay [1] was 4890 nM; in assay [2] it was 75000 nM.
For `CC[C@H]1CN(C(C)c2cn3ccccc3n2)[C@H](CC)CN1c1cc(=O)n(C)c2cn(CC#N)nc12` (some centres unmarked) [Compound A388] the same measures were 1250 nM and 1390 nM.
As to `CC[C@H]1CN(C(C)c2cc3ccccn3n2)[C@H](CC)CN1c1cc(=O)n(C)c2cn(CC#N)nc12` (some centres unmarked) [Compound A389], the IC50 came out at 201 nM in assay [1] and 43 nM in assay [2].
For `CC#CCn1cc2c(n1)c(N1C[C@@H](C)N(C(C)c3ccc4c(c3)OC(C)(C)O4)C[C@@H]1C)cc(=O)n2C` (stereo partly drawn) [Compound A390, 2-(but-2-yn-1-yl)-7-((2S,5R)-4-(1-(2,2-dimethylbenzo[d][1,3]dioxol-5-yl)ethyl)-2,5-dimethylpiperazin-1-yl)-4-methyl-2,4-dihydro-5H-pyrazolo[4,3-b]pyridin-5-one] the same measures were 490 nM and 4580 nM.
As for `CC#CCn1cc2c(n1)c(N1C[C@@H](C)N(C(C)c3ccc4c(c3)OC(F)(F)O4)C[C@@H]1C)cc(=O)n2C` (some centres unmarked) [Compound A391], the 50% inhibitory concentration (IC50) in assay [1] was 1650 nM; in assay [2] it was 1180 nM.
On the same counts, the results for `CC#CCn1cc2c(n1)c(N1C[C@@H](CC)N(C(C)c3cc4ccccc4cn3)C[C@@H]1C)cc(=O)n2C` (stereo partly drawn) [Compound A393, 2-(but-2-yn-1-yl)-7-((2S,5R)-5-ethyl-4-(1-(isoquinolin-3-yl)ethyl)-2-methylpiperazin-1-yl)-4-methyl-2,4-dihydro-5H-pyrazolo[4,3-b]pyridin-5-one] are 795 nM and 108 nM.
Turning to `CC#CCn1cc2c(n1)c(N1C[C@@H](CC)N(C(C)c3ccc4cccnc4c3)C[C@@H]1C)cc(=O)n2C` (some centres unmarked) [Compound A395], the IC50 came to 272 nM in assay [1] and 222 nM in assay [2].
